Test [1] addresses T1, menin / FITC-MBM1 peptide (Menin/MLL) (Homo sapiens, UniProt O00255).
T1 sequence (O00255 1-610): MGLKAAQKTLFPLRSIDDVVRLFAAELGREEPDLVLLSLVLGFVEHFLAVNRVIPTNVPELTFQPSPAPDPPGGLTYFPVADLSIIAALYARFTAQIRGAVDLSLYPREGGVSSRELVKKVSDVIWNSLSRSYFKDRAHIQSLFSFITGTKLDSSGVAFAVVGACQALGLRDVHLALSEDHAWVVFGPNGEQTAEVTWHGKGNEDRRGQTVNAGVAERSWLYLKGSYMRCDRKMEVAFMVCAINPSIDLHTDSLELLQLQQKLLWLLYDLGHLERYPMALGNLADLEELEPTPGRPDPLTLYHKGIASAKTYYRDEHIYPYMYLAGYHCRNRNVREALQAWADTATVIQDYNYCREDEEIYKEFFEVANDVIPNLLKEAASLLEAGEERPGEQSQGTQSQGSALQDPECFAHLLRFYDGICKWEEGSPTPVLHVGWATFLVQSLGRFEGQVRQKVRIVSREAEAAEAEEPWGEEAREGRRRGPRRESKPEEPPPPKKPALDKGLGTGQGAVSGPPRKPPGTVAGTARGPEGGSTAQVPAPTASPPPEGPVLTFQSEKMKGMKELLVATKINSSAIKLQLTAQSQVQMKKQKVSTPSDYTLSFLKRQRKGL
As to the kind of experiment: Menin/MLL fluorescence polarization (FP) assay. Format: binding. The note with it: read-out: (1) Menin FP assay (IC50 (μM)). The procedure:
Pharmacological Part 1) Menin/MLL Fluorescence Polarization Assay
To a non-surface binding, black 384-well microtiter plate was added 50 nL 160× test compound in DMSO and 4 μL 2× menin in assay buffer (40 mM TrisHCl, pH 7.5, 50 mM NaCl, 1 mM DTT and 0.001% Tween 20). After incubation of test compound and menin for 10 min at ambient temperature, 4 μL 2×FITC-MBM1 peptide (FITC-β-alanine-SARWRPPARPGT-NH2) in assay buffer was added, the microtiter plate centrifuged at 1000 rpm for 1 min and the assay mixtures incubated for 15 min at ambient temperature. The relative amount of menin -FITC-MBM1 complex present in an assay mixture is determined by measuring the fluorescence polarization (FP) of the FITC label with a BMG Pherastar plate reader (ex. 485 nm/em. 520 nm) at ambient temperature. The final concentrations of reagents in the binding assay are 100 nM menin, 5 nM FITC-MBM1 peptide and 0.625%>DMSO in assay buffer. Dose-response titrations of test compounds are conducted using an 11 point, three-fold serial dilution scheme, starting at 31 μM.
Compound potencies were determined by first calculating % inhibition at each compound concentration according to equation 1: % inhibition=((HC−LC)−(FPcompound−LC))/(HC−LC))*100 (Eqn 1)
Where LC and HC are the FP values of the assay in the presence or absence of a saturating concentration of a compound that competes with FITC-MBM1 for binding to menin, and FP^compound is the measured FP value in the presence of the test compound. HC and LC FP values represent an average of at least 16 replicates per plate.
Where Bottom and Top are the lower and upper asymptotes of the dose-response curve, respectively, IC50 is the concentration of compound that yields 50% inhibition of signal and h is the Hill coefficient.
(In fluorescence polarisation assays a small probe gives low polarisation when free and higher when bound to something large.)

Test [2] relates to K562 cells (two MLL wildtype alleles). As to the kind of experiment: Proliferation assay (spheroid-like growth, 8 d, live-cell imaging), K562 control cell line. Conditions: Homo sapiens, 192 h, absolute IC50 from AUC of confluence, read-out: (3) Spheroid assay K562. Type of test: cell-based. The procedure:
The anti-proliferative effect of menin/MLL protein/protein interaction inhibitor test compounds was assessed in human leukemia cell lines. The cell lines MV-4-1 1 and MOLM14 harbor MEL translocations and express the MEL fusion proteins MLL-AF4 and MLL-AF9, respectively, as well as the wildtype protein from the second allele. […] K562 was used as a control cell line containing two MLL wildtype alleles in order to exclude compounds that display general cytotoxic effects.
MV-4-1 1 and MOLM14 were cultured in RPMI-1640 (Sigma Aldrich) supplemented with 10% fetal bovine serum (HyClone), 2 mM L-glutamine (Sigma Aldrich) and 50 μg/ml gentamycin (Gibco). […]
In order to assess the anti-proliferative effects, 1,500 MV-4-1 1, 300 MOLM14 or 750 K562 cells were seeded in 200 μl media per well in 96-well round bottom, ultra-low attachment plates (Costar, catalogue number 7007). […] Spheroid like growth was monitored in real-time by live-cell imaging (IncuCyteZOOM, Essenbio, 4× objective) acquiring one image every four hours for 8d. Confluence (%) as a measure of spheroid size was determined using an integrated analysis tool.
In order to determine the cumulative effect of the test compounds over time, the area under the curve (AUC) in a plot of confluence against time was calculated. […]

In test [3] the test system is MV-4-1 1 cells (MLL-AF4). As to the kind of experiment: Proliferation assay (spheroid-like growth, 8 d, live-cell imaging), MV-4-11. Format: cell-based, human. Conditions: MV-4-11 cells, absolute IC50 from AUC of confluence, read-out: (3) Spheroid assay MV-4-11 (IC50 (μM)). In outline: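 Cells seeded in ultra-low attachment wells (1,500 MV-4-11, 300 MOLM14, 750 K562) with compound, 0.3% DMSO, grown 8 d at 37° C. Confluence imaged every four hours; AUC of confluence versus time, relative to vehicle, fitted for absolute IC50.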

Like-named read-outs stand apart in the source and are kept apart here.

Regarding `FC(F)(F)Cc1cc2c(N3CCC[C@H](NCc4ccccc4)CC3)ncnc2s1` [Compound 4, (S)-N-benzyl-1-(6-(2,2,2-trifluoroethyl)thieno[2,3-d]pyrimidin-4-yl)azepan-4-amine], the IC50 in test [1] was found to be 0.23 µM; in test [2] it was 8800 nM; in test [3] (Homo sapiens, MV4-11, 192 h), 2.9 µM.

In the case of `FC(F)(F)Cc1cc2c(N3CCC[C@@H](NCc4ccccc4)CC3)ncnc2s1` [Compound 3, (R)N-benzyl-1-(6-(2,2,2-trifluoroethyl)thieno[2,3-d]pyrimidin-4-yl)azepan-4-amine], the IC50 in test [1] stood at 0.038 µM; in test [2], 9700 nM; in test [3] (Homo sapiens, MV4-11, 192 h), 0.44 µM.

Take `CC(C)CNC1CCCN(c2ncnc3sc(CC(F)(F)F)cc23)CC1` (single isomer, unassigned) [Compound B1B, N-isobutyl-1-(6-(2,2,2-trifluoroethyl)thieno[2,3-d]pyrimidin-4-yl)azepan-4-amine]: the results for the IC50 in test [1] and in test [3] were 0.44 µM and 8.9 µM, respectively.

Turning to `CC(C)CNC1CCCN(c2ncnc3sc(CC(F)(F)F)cc23)CC1` (single isomer, unassigned) [Compound B1A, N-isobutyl-1-(6-(2,2,2-trifluoroethyl)thieno[2,3-d]pyrimidin-4-yl)azepan-4-amine], the IC50 stood at 0.054 µM in test [1] and 2.5 µM in test [3].

The values above are taken from US11530226B2, “Azepane inhibitors of menin-MLL interaction” (Janssen Pharmaceutica NV, priority 2016, dated 2022).
